Test results from ChEMBL document CHEMBL5252512, “Recent Progress in the Development of HIV-1 Protease Inhibitors for the Treatment of HIV/AIDS” (J Med Chem, 2016).

Key:
[1] = system: Human immunodeficiency virus 1; assay: Ratio of EC50 for antiviral activity against HIV1-T21217 to EC50 for antiviral activity against wild type HIV1 r13205; format: functional
[2] = system: Human immunodeficiency virus 1; assay: Ratio of EC50 for antiviral activity against HIV1-T13717 to EC50 for antiviral activity against wild type HIV1 r13205; format: functional
[3] = system: Human immunodeficiency virus 1; assay: Antiviral activity against HIV1 T13572 infected in human MT4 cells expressing LTR and EGFP assessed as inhibition of virus-induced cytopathic effect by fluorescence microscopic analysis; format: functional, organism-based; conditions: Human immunodeficiency virus 1, T13572, MT4
[4] = system: Human immunodeficiency virus 1; assay: Ratio of EC50 for antiviral activity against HIV1-T13572 to EC50 for antiviral activity against wild type HIV1 r13205; format: functional
[5] = system: Human immunodeficiency virus 1; assay: Antiviral activity against HIV1 T13436 infected in human MT4 cells expressing LTR and EGFP assessed as inhibition of virus-induced cytopathic effect by fluorescence microscopic analysis; format: functional, organism-based; conditions: Human immunodeficiency virus 1, T13436, MT4
[6] = system: Human immunodeficiency virus 1; assay: Antiviral activity against HIV1 T21217 infected in human MT4 cells expressing LTR and EGFP assessed as inhibition of virus-induced cytopathic effect by fluorescence microscopic analysis; format: functional, organism-based; conditions: Human immunodeficiency virus 1, T21217, MT4
[7] = system: Human immunodeficiency virus 1; assay: Antiviral activity against HIV1 T13632 infected in human MT4 cells expressing LTR and EGFP assessed as inhibition of virus-induced cytopathic effect by fluorescence microscopic analysis; format: functional, organism-based; conditions: Human immunodeficiency virus 1, T13632, MT4
[8] = system: Human immunodeficiency virus 1; assay: Ratio of EC50 for antiviral activity against HIV1-T13436 to EC50 for antiviral activity against wild type HIV1 r13205; format: functional
[9] = system: Human immunodeficiency virus 1; assay: Ratio of EC50 for antiviral activity against HIV1-T13632 to EC50 for antiviral activity against wild type HIV1 r13205; format: functional
[10] = system: Human immunodeficiency virus 1; assay: Antiviral activity against HIV1 T21055 infected in human MT4 cells expressing LTR and EGFP assessed as inhibition of virus-induced cytopathic effect by fluorescence microscopic analysis; format: functional, organism-based; conditions: Human immunodeficiency virus 1, T21055, MT4
[11] = system: Human immunodeficiency virus 1; assay: Antiviral activity against HIV1 T13717 infected in human MT4 cells expressing LTR and EGFP assessed as inhibition of virus-induced cytopathic effect by fluorescence microscopic analysis; format: functional, organism-based; conditions: Human immunodeficiency virus 1, T13717, MT4
[12] = system: Human immunodeficiency virus 1; assay: Ratio of EC50 for antiviral activity against HIV1-T21055 to EC50 for antiviral activity against wild type HIV1 r13205; format: functional
[13] = system: Human immunodeficiency virus 1; assay: Ratio of EC50 for antiviral activity against HIV1-T20760 to EC50 for antiviral activity against wild type HIV1 r13205; format: functional
[14] = system: Human immunodeficiency virus 1; assay: Antiviral activity against HIV1 T20760 infected in human MT4 cells expressing LTR and EGFP assessed as inhibition of virus-induced cytopathic effect by fluorescence microscopic analysis; format: functional, organism-based; conditions: Human immunodeficiency virus 1, T20760, MT4
[15] = system: Human immunodeficiency virus 1; assay: Antiviral activity against wild type HIV1 r13205 infected in human MT4 cells expressing LTR and EGFP assessed as inhibition of virus-induced cytopathic effect by fluorescence microscopic analysis; format: functional, organism-based; conditions: Human immunodeficiency virus 1, r13205, MT4
[16] = system: Human immunodeficiency virus 1; assay: Antiviral activity against HIV1 LAI infected in human MT2 cells assessed as inhibition of virus-induced cytopathic effect by MTT assay; format: functional, organism-based; conditions: Human immunodeficiency virus 1, LAI
[17] = molecular target: T1, Human immunodeficiency virus type 1 protease (Human immunodeficiency virus 1, UniProt Q72874); assay: Binding affinity to HIV1 recombinant wild type protease expressed in Escherichia coli BL21(DE3) assessed as inhibition constant
[18] = Cytotoxicity against human MT2 cells assessed as reduction in cell viability by MTT assay; format: toxicity, cell-based
[19] = system: Human immunodeficiency virus 1; assay: Ratio of EC50 for antiviral activity against HIV1-B to EC50 for antiviral activity against wild type HIV1 ERS104pre; format: functional
[20] = system: Human immunodeficiency virus 1; assay: Antiviral activity against multidrug-resistant HIV1-JSL infected in phytohemagglutinin-activated human PBMC cells assessed as inhibition of virus-induced cytopathic effect measured after 7 days by MTT assay; format: functional, organism-based; conditions: Human immunodeficiency virus 1, JSL, 168 h
[21] = Lipophilicity, logP of the compound in Octanol/water by shake-flask method; format: physicochemical
[22] = system: Human immunodeficiency virus 1; assay: Ratio of EC50 for antiviral activity against HIV1-JSL to EC50 for antiviral activity against wild type HIV1 ERS104pre; format: functional
[23] = system: Human immunodeficiency virus 1; assay: Ratio of EC50 for antiviral activity against HIV1-TM to EC50 for antiviral activity against wild type HIV1 ERS104pre; format: functional
[24] = Apparent permeability in rat astrocytes/rat pericytes/monkey endothelial cells triple cell co-culture system incubated for 30 mins by spectrophotometric analysis; format: ADME, cell-based
[25] = system: Human immunodeficiency virus 1; assay: Antiviral activity against multidrug-resistant HIV1-MM infected in phytohemagglutinin-activated human PBMC cells assessed as inhibition of virus-induced cytopathic effect measured after 7 days by MTT assay; format: functional, organism-based; conditions: Human immunodeficiency virus 1, MM, 168 h
[26] = system: Human immunodeficiency virus 1; assay: Antiviral activity against multidrug-resistant HIV1-C infected in phytohemagglutinin-activated human PBMC cells assessed as inhibition of virus-induced cytopathic effect measured after 7 days by MTT assay; format: functional, organism-based; conditions: Human immunodeficiency virus 1, C, 168 h
[27] = system: Human immunodeficiency virus 1; assay: Ratio of EC50 for antiviral activity against HIV1-G to EC50 for antiviral activity against wild type HIV1 ERS104pre; format: functional
[28] = Selectivity index, ratio of CC50 for human MT2 cells to IC50 for antiviral activity against HIV1 LAI; format: toxicity; conditions: read-out: Ratio CC50/EC50
[29] = system: Human immunodeficiency virus 1; assay: Antiviral activity against multidrug-resistant HIV1-B infected in phytohemagglutinin-activated human PBMC cells assessed as inhibition of virus-induced cytopathic effect measured after 7 days by MTT assay; format: functional, organism-based; conditions: Human immunodeficiency virus 1, B, 168 h
[30] = system: Human immunodeficiency virus 1; assay: Antiviral activity against wild type HIV1 ERS104pre infected in human PBMC cells assessed as inhibition of virus-induced cytopathic effect measured after 7 days by MTT assay; format: functional, organism-based; conditions: Human immunodeficiency virus 1, ERS104pre, 168 h
[31] = system: Human immunodeficiency virus 1; assay: Ratio of EC50 for antiviral activity against HIV1-MM to EC50 for antiviral activity against wild type HIV1 ERS104pre; format: functional
[32] = Lipophilicity, logD of the compound in Octanol/buffer by shake-flask method; format: physicochemical
[33] = system: Human immunodeficiency virus 1; assay: Antiviral activity against multidrug-resistant HIV1-TM infected in phytohemagglutinin-activated human PBMC cells assessed as inhibition of virus-induced cytopathic effect measured after 7 days by MTT assay; format: functional, organism-based; conditions: Human immunodeficiency virus 1, TM, 168 h
[34] = molecular target: T1, Human immunodeficiency virus type 1 protease; assay: Binding affinity to HIV1 protease assessed as inhibition constant
[35] = system: Human immunodeficiency virus 1; assay: Antiviral activity against multidrug-resistant HIV1-G infected in phytohemagglutinin-activated human PBMC cells assessed as inhibition of virus-induced cytopathic effect measured after 7 days by MTT assay; format: functional, organism-based; conditions: Human immunodeficiency virus 1, G, 168 h
[36] = system: Human immunodeficiency virus 1; assay: Ratio of EC50 for antiviral activity against HIV1-C to EC50 for antiviral activity against wild type HIV1 ERS104pre; format: functional
[37] = molecular target: T1, Human immunodeficiency virus type 1 protease; assay: Inhibition of recombinant wildtype HIV1 Protease using Abz-Thr-Ile-Nle-Phe(NO2)-Gln-Arg peptide as substrate
[38] = system: Human immunodeficiency virus 1; assay: Ratio of EC50 for antiviral activity against darunavir-resistant HIV1 20P to EC50 for antiviral activity against wild type HIV1 ERS104pre; format: functional
[39] = system: Human immunodeficiency virus 1; assay: Antiviral activity against darunavir-resistant HIV1 20P infected in phytohemagglutinin-activated human PBMC cells assessed as inhibition of virus-induced cytopathic effect measured after 7 days by MTT assay; format: functional, organism-based; conditions: Human immunodeficiency virus 1, 20P, 168 h
[40] = system: Human immunodeficiency virus 1; assay: Antiviral activity against darunavir-resistant HIV1 10P infected in phytohemagglutinin-activated human PBMC cells assessed as inhibition of virus-induced cytopathic effect measured after 7 days by MTT assay; format: functional, organism-based; conditions: Human immunodeficiency virus 1, 10P, 168 h
[41] = system: Human immunodeficiency virus 1; assay: Ratio of EC50 for antiviral activity against darunavir-resistant HIV1 10P to EC50 for antiviral activity against wild type HIV1 ERS104pre; format: functional

Row | Structure (SMILES) | EC50 [16] | Ratio EC50 [19] | EC50 [20] | Ratio EC50 [22] | Ratio EC50 [23] | EC50 [25] | EC50 [26] | Ratio EC50 [27] | EC50 [29] | EC50 [30] | Ratio EC50 [31] | EC50 [33] | EC50 [35] | Ratio EC50 [36] | IC50 [37] | also measured
1 | CC(C)CN(C[C@@H](O)[C@H](Cc1ccccc1)NC(=O)O[C@H]1CO[C@H]2OCC[C@H]21)S(=O)(=O)c1ccc2sc(NC3CCN(C4CCCC4)CC3)nc2c1 |  |  |  |  |  |  |  |  |  |  |  |  |  |  |  | Ratio EC50 [1]: 12; Ratio EC50 [2]: 2.6; EC50 [3]: 1.5 nM; Ratio EC50 [4]: 0.058; EC50 [5]: 5.1 nM; EC50 [6]: 312 nM; EC50 [7]: 42 nM; Ratio EC50 [8]: 0.2; Ratio EC50 [9]: 1.6; EC50 [10]: 308 nM; EC50 [11]: 68 nM; Ratio EC50 [12]: 12; Ratio EC50 [13]: 2.5; EC50 [14]: 65 nM; EC50 [15]: 26 nM
2 | CC(C)CN(C[C@@H](O)[C@H](Cc1ccccc1)NC(=O)O[C@H]1CO[C@H]2OCC[C@H]21)S(=O)(=O)c1ccc(C(=O)O)cc1 | > 10000 nM |  |  |  |  |  |  |  |  |  |  |  |  |  |  | Ki [17]: 0.0127 nM
3 | COc1ccc(S(=O)(=O)N(CC(C)C)C[C@@H](O)[C@H](Cc2ccccc2)NC(=O)O[C@H]2CO[C@H]3OCC(F)(F)[C@H]32)cc1 | 0.8 nM | 7 | 21 nM | 10 | 2 | 2 nM | 2 nM | 2 | 14 nM | 2.3 nM | 1 | 4 nM | 4 nM | 1 |  | CC50 [18]: 17500 nM; logP [21]: -0.14; Papp at 0.5 h [24]: 61.8 ×10⁻⁶ cm/s; selectivity ratio [28]: 21900; logD [32]: -0.29; Ki [34]: 0.8 nM
4 | CC(C)(C)NC(=O)[C@@H]1C[C@@H]2CCCC[C@@H]2CN1C[C@@H](O)[C@@H](NC(=O)[C@H](CC(N)=O)NC(=O)c1ccc2ccccc2n1)c1cccs1 |  |  |  |  |  |  |  |  |  |  |  |  |  |  | 5000 nM | 
5 | Cc1c(O)cccc1C(=O)N[C@@H](c1cccs1)[C@H](O)CN1C[C@H]2CCCC[C@H]2C[C@H]1C(=O)NC(C)(C)C |  |  |  |  |  |  |  |  |  |  |  |  |  |  | 30000 nM | 
6 | COC(=O)N[C@H](C(=O)N[C@@H](Cc1ccccc1)[C@@H](O)CN(Cc1ccc(-c2ccccn2)cc1)NC(=O)[C@@H](NC(=O)OC)C(C)(C)C)C(C)(C)C [ATAZANAVIR] |  | 174 | > 211 nM | >78 | 24 | 81 nM | 38.8 nM | 7 | 450 nM | 2.1 nM | 20 | 56 nM | 19.4 nM | 14 |  | Ratio EC50 [38]: >370; EC50 [39]: > 1000 nM; EC50 [40]: 323 nM; Ratio EC50 [41]: 77
